One experiment relates to rats. The following applies: icv administration; cited from earlier work.
For experiment [1], the target named is T1, Y2 receptors (Homo sapiens, UniProt P49146).
T1 construct: endogenous in cells; host or cells: KAN-Ts cells (membranes)
T1 sequence (P49146 1-381): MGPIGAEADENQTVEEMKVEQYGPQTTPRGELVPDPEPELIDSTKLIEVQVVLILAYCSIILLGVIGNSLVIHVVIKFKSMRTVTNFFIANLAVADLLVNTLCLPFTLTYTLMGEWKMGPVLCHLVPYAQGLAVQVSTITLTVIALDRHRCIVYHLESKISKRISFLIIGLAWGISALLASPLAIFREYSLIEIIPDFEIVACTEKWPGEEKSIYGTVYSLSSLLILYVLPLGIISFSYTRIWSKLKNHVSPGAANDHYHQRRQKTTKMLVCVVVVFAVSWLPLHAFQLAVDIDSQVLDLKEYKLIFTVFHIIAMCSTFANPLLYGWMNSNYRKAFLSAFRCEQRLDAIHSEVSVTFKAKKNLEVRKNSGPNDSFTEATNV
Nature of the experiment: Radioligand binding assay ([125I]PYY, KAN-Ts cell membranes). The settings on record: Table 1, [125I]PYY 80 pM, average of results, read-out: IC50. A digest of the protocol: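 Membranes from KAN-Ts cells endogenously expressing Y2 incubated 1 h at rt with 80 pM [^125I]PYY ± test compound in HEPES buffer with NaCl, Ca^2+ and Mg^2+. Bound radioactivity collected by filtration; specific binding defined with […]. IC50 from sigmoidal fit, averaged over 3-8 duplicate experiments.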

For experiment [2], the target named is T1, Y2 receptors. The experiment is described as follows: [35S]GTPγS binding assay in KAN-Ts cells (inhibition of PYY-stimulated binding). The experiment is classed as biochemical. The following applies: KAN-Ts membranes. The procedure:
[^35S] GTPγS binding assay in KAN-Ts cells
Membranes from KAN-Ts cells were prepared as described above. Membranes were thawed on ice and diluted in 50 mM Tris-HCl buffer, pH 7.4 containing 10 mM MgCl2, 1 mM EDTA, 100 mM NaCl, […], 0.25% BSA. Assay mixture ([…]) were preincubated with compounds for 30 min at rt. Then, […] of [^35S]GTPγS in assay buffer was added to a final concentration of 200 pM and the assay mixtures were incubated for 1 h at rt. Reactions were terminated by rapid filtration thought GF/C filters. Filters were washed twice with ice cold 50 mM Tris-HCl, pH 7.4 containing 10 mM MgCl2. Basal [^35S]GTPγS was measured in the absence of compounds. In initial experiments, nonspecific binding was measured in the presence of […]. This nonspecific binding never exceeded 10% of basal binding and was thus not subtracted from experimental data. Stimulation of [^35S]GTPγS is presented as percentage over basal and was calculated as one hundred times the difference between stimulated and basal binding (in cpm). […] EC50 (concentration of compound at which 50% of its own maximal stimulation is obtained) and IC50 (concentration of its own maximal inhibition of PYY-stimulated [^35S]GTPγS binding is obtained) were derived from the curves. IC50 values were corrected as follows: corrected IC50 (IC50corr)=IC50/(1+[PYY]/EC50 (PYY)) and pIC50corr=−log IC50corr.

`N=C(N)NCCC[C@H](NC(=O)CC1(CC(=O)N2CCN(C3c4ccccc4NC(=O)c4ccccc43)CC2)CCCC1)C(=O)NCCn1c(=O)n(-c2ccccc2)n(-c2ccccc2)c1=O` (stereo partly drawn) [BIIE0246]: the ethanol self-administration result with rats is reported as “dose dependently reduced ethanol self-administration”.
As for `CCNC(=O)C(c1ccccc1)C1CCN(c2ccc(NC(=O)Nc3c(C)noc3C)cc2F)CC1` (stereo not drawn) [Example 10, 2-(1-{4-[3-(3,5-Dimethyl-isoxazol-4-yl)-ureido]-2-fluoro-phenyl}-piperidin-4-yl)-N-ethyl-2-phenyl-acetamide], the IC50 on Y2 receptors [1] amounted to 15 nM. Moreover, the “functional behaviour in [35S]GTPγS assay” value at Y2 receptors [2] is reported as “antagonist”.

Usually IC50 stands for the point on the concentration scale where inhibition reaches its midpoint.
